Results: US20240336660A1 (priority 2021, published 2024)
*: point of attachment. Decanoyl = CCCCCCCCCC(=O)*; CH2Cl = ClC*

Tests used:
Htet1/SD614G cells = format: cell-based, human; details: for effect on trafficking of Spike to lysosomes: 20 hours, 50 μM dynasore, 20 μM pitstop2, 1 μM nocodazole, 43 nM bafilomycin
[1] = test system: doxycycline-induced Htet1/SW1 cells; format: cell-based, human

| Compound | effect on trafficking of Spike to lysosomes (Htet1/SD614G cells) | also measured |
| --- | --- | --- |
| O=C(N/N=C/c1ccc(O)c(O)c1)c1cc2ccccc2cc1O [dynasore] | Neither had a noticeable impact on the trafficking of Spike to lysosomes | – |
| bafilomycin | redirected Spike into the Golgi and plasma membranes, preventing its accumulation in lysosomes | – |
| COC(=O)Nc1nc2ccc(C(=O)c3cccs3)cc2[nH]1 [nocodazole] | had no effect | – |
| Decanoyl-RVKR-CH2Cl | – | effect on Spike cell surface expression and furin-mediated processing [1]: reduced Spike's cell surface expression and furin-mediated processing |
| O=C1NC(=NS(=O)(=O)c2cccc3ccccc23)S/C1=C\c1ccc(Br)cc1 [pitstop2] | Neither had a noticeable impact on the trafficking of Spike to lysosomes | – |
| vacuolin-1 | – | Spike localization after vacuolin-1 treatment (Htet1/SD614G cells; vacuolin-1 10 μg/ml for three hours): Spike localization to lysosome membranes was also apparent |
